# Reference: patent publication US9315806B2, “Massively parallel combinatorial genetics” (Massachusetts Institute of Technology, priority 2012, dated 2016)
# What was measured:
# E. coli NDM-1 strain = experiment: microbe, parasite or virus in culture; format: cell-based; conditions: for MIC: Escherichia coli, NDM1STRAIN, read-out: NDM-1 MICs, Tested; for NDM-1 MICs, Tested: for piperacillin-tazobactam the piperacillin concentration
# [1] = test system: Klebsiella pneumoniae NDM-1 clinical isolate; conditions: original Klebsiella pneumoniae NDM-1 isolate; cited from earlier work
# [2] = test system: aTc-inducible pLtetO promoters; experiment: aTc induction of GFP/mCherry pairwise combinations; format: cell-based, E. coli; conditions: DH5a colonies, increasing concentrations of aTc
# Source text: Next, to test gene expression, a barcoded vector library of GFP and mCherry was constructed under the control of aTc-inducible pLtetO promoters with a T1+T7 fusion terminator downstream of each ORF. Each vector contained the high-copy ColE1 origin, tetR under control of a constitutive promoter, and cat conferring chloramphenicol resistance.
# An insert library was generated via PCR, creating a pairwise combinatorial set as in FIG. 5 that was then transformed into DH5a cells. Twenty-four colonies were isolated and grown in increasing concentrations of aTc along with positive and negative controls (FIG. 7).
# [3] = test system: yeast strains (Aβ or αSyn expression array, W303 background); experiment: Cell growth and inducible amyloid toxicity of yeast model strains; format: cell-based; conditions: yeast strains with integrated rtTA
# Source text: (§1) The repetitive Aβ or αSyn expression array was integrated in yeast genome (the W303 background) and controlled by galactose induction. FIG. 28 depicts a yeast strain generated by integrating multiple tandem copies of αSyn with a galactose (Gal)-inducible promoter. In order to minimize the size of plasmid backbone for library construction, the reverse tetracycline transactivator (rtTA), part of the Tet-ON expression system (Gossen, M. et al., Science […]:1766-9 (1995)), was integrated into both yeast strains. The Tet-ON induction was tested by using different fluorescent proteins (such as eGFP and mCherry), and consistently detected robust gene activation (about 50-fold increase) with doxycycline (Dox) treatment. […] Similarly, the rtTA was successfully integrated in wild-type strain (the BY4741 background) to study longevity.
# [4] = test system: Tet-ON expression system (rtTA); experiment: Tet-ON induction tested with fluorescent proteins (eGFP, mCherry); format: cell-based; conditions: yeast strains with integrated rtTA
# Source text: as §1
Compound,MIC (E. coli NDM-1 strain) [µg/mL],"NDM-1 MICs, Previously Reported [1] [µg/mL]","NDM-1 MICs, Tested (E. coli NDM-1 strain; E. coli NDM-1) [µg/mL]",also measured
CC1(C)S[C@@H]2[C@H](NC(=O)[C@H](N)c3ccc(O)cc3)C(=O)N2[C@H]1C(=O)O [Amoxicillin],> 512,,,
CO/N=C(\C(=O)N[C@@H]1C(=O)N2C(C(=O)O)=C(CSc3nc(=O)c(=O)[nH]n3C)CS[C@H]12)c1csc(N)n1 [Ceftriaxone],> 128,>32,,
C[C@@H](O)[C@H]1C(=O)N2C(C(=O)O)=C(SCCN=CN)C[C@H]12 [Imipenem],> 32,,,
Cc1c2c(c(O)c3c(O)cccc13)C(=O)[C@]1(O)C(O)=C(C(N)=O)C(=O)[C@@H](N(C)C)[C@@H]1C2 [aTc],,,,on/off ratios of induction [2]: 150-300 x
C[C@H]1c2cccc(O)c2C(=O)C2=C(O)[C@]3(O)C(=O)C(C(N)=O)=C(O)[C@@H](N(C)C)[C@@H]3[C@@H](O)[C@@H]21 [doxycycline],,,,Effect on cell growth or inducible amyloid toxicity [3]: neither the integrated rtTA nor the Dox treatment affects cell growth or the inducible amyloid toxicity; Gene activation (Tet-ON induction) [4]: about 50 fold
Colistin,,0.25,<0.125,
Gentamicin,,>10,>256,
Piperacillin-Tazobactam,,>128,> 256,"NDM-1 MICs, Tested, tazobactam concentration (E. coli NDM-1 strain; E. coli NDM-1, tazobactam part of piperacillin-tazobactam): 32 µg/mL"
